Test results published in patent US8883773B2, “Cephem compound having pseudo-catechol group” (Shionogi & Co., Ltd., priority 2010, dated 2014).
≈ marks a conversion by molar mass, not a printed value. Where two headings read alike, the source gives them in different places.

Legend:
Type in all cases: cell-based
[1] = system: Acinetobacter baumannii SR24396; assay: in vitro antimicrobial activity, MIC by agar plate incubation (Japan Society for Chemotherapy method); conditions: 1000 cfu/spot, sensitive disc medium, read-out: Minimum Inhibitory Concentration (MIC)
Protocol: (§1) Compound (I) of the subject invention has been investigated for in vitro antimicrobial activity thereof.
(§2) (Microbe/Strain Species Nos. 1-4):
(§3) Measurement of Minimum Inhibitory Concentration (MIC: microgram/ml) was conducted according to the standard method of the Japan Society for Chemotherapy, and the amount of bacteria for inoculation was 1000 cfu/spot, and sensitive disc medium was used as the test medium, and conducted using agar plate incubation.
(§4) In the tables, the unit of the values of inhibitory activity is microgram/ml (μg/ml)

[2] = system: Pseudomonas aeruginosa SR27060; assay: as above; conditions: IMP-1, MBL producing strain (carbapenem resistant strain), 1000 cfu/spot, sensitive disc medium, read-out: Minimum Inhibitory Concentration (MIC)
Protocol: as §1, §2, §3, §4

[3] = system: Klebsiella pneumoniae ATCC 700603; assay: as above; conditions: ATCC700603, SHV-18, ESBL producing strain, 1000 cfu/spot, sensitive disc medium, read-out: Minimum Inhibitory Concentration (MIC)
Protocol: as §1, §2, §3, §4

[4] = system: Pseudomonas aeruginosa SR24; assay: as above; conditions: no enzyme, Ceftazidime sensitive strain, 1000 cfu/spot, sensitive disc medium, read-out: Minimum Inhibitory Concentration (MIC)
Protocol: as §1, §2, §3, §4

[5] = system: Stenotrohomonas maltophilia SR21970; assay: in vitro antimicrobial activity, MIC by agar plate incubation (CLSI method, Mueller-Hinton agar); conditions: L-1, MBL producing strain (carbapenem resistant strain), 10000 cfu/spot, read-out: Minimum Inhibitory Concentration (MIC)
Protocol: as §1
(Microbe/Strain Species Nos. 5):
Measurement of Minimum Inhibitory Concentration (MIC, microgram/ml) was conducted according to the CLSI (Clinical and Laboratory Standards Institute) and the amount of bacteria for inoculation was 10000 cfu/spot, and Mueller-Hinton agar medium was used as the test medium, and conducted using agar plate incubation.
as §4

[6] = SR24396, Acinetobacter baumannii SR24395 (Table 10)

| MIC [1, 6] | MIC [2] | MIC [3] | MIC [4] | MIC [5] | MIC ([1]; Acinetobacter baumannii SR24396 (Table 11)) | Structure (SMILES) |
| --- | --- | --- | --- | --- | --- | --- |
| 0.5 µg/mL | 0.25 µg/mL | 0.25 µg/mL | 0.063 µg/mL | 1 µg/mL |  | CC(C)(O/N=C(\C(=O)N[C@@H]1C(=O)N2C(C(=O)[O-])=C(C[N+]3(CCNC(=O)c4cc(=O)c(O)c[nH]4)CCCC3)CS[C@H]12)c1csc(N)n1)C(=O)[O][Na] [Compound I-4] |
| 0.25 µg/mL (≈ 0.34 µM) | 0.25 µg/mL (≈ 0.34 µM) | 0.25 µg/mL (≈ 0.34 µM) | 0.063 µg/mL (≈ 0.0857 µM) | 1 µg/mL (≈ 1.36 µM) |  | CC(C)(O/N=C(\C(=O)N[C@@H]1C(=O)N2C(C(=O)O)=C(C[N+]3(CCNC(=O)c4cc(=O)c(O)cn4O)CCCC3)CS[C@H]12)c1csc(N)n1)C(=O)[O-] [Compound I-6] |
|  | 1 µg/mL (≈ 1.31 µM) | 0.5 µg/mL (≈ 0.657 µM) | 0.25 µg/mL (≈ 0.329 µM) | 1 µg/mL (≈ 1.31 µM) | 0.25 µg/mL (≈ 0.329 µM) | Nc1nc(/C(=N/O[C@@H](CC(=O)O)C(=O)[O-])C(=O)N[C@@H]2C(=O)N3C(C(=O)O)=C(C[N+]45CCC[C@H]4CN(C(=O)c4cc(=O)c(O)c[nH]4)CC5)CS[C@H]23)cs1 (stereo partly shown) [Compound I-11] |

| Structure (SMILES) | MIC [1, 6] | MIC [2] | MIC [3] | MIC [4] | MIC [5] | MIC ([1]; Acinetobacter baumannii SR24396 (Table 11)) |
| --- | --- | --- | --- | --- | --- | --- |
| CC(C)(O/N=C(\C(=O)N[C@@H]1C(=O)N2C(C(=O)O)=C(C[N+]34CCC(CNC(=O)c5cc(=O)c(O)c[nH]5)(CC3)CC4)CS[C@H]12)c1csc(N)n1)C(=O)[O-] [Compound I-2] | 1 µg/mL (≈ 1.34 µM) | 1 µg/mL (≈ 1.34 µM) | 1 µg/mL (≈ 1.34 µM) | 0.125 µg/mL (≈ 0.168 µM) |  |  |
